Drawing on ChEMBL document CHEMBL5291721, “A preclinical secondary pharmacology resource illuminates target-adverse drug reaction associations of marketed drugs” (Nat Commun, 2023), this text covers AC50 for 20 compounds.

Experiment [1] addresses T1, D(1A) dopamine receptor (Homo sapiens, UniProt P21728). Type of experiment: functional, cell-based.
Experiment [2] concerns the target T2, Estrogen receptor (Homo sapiens, UniProt P03372).
T2 sequence (P03372 whole entry): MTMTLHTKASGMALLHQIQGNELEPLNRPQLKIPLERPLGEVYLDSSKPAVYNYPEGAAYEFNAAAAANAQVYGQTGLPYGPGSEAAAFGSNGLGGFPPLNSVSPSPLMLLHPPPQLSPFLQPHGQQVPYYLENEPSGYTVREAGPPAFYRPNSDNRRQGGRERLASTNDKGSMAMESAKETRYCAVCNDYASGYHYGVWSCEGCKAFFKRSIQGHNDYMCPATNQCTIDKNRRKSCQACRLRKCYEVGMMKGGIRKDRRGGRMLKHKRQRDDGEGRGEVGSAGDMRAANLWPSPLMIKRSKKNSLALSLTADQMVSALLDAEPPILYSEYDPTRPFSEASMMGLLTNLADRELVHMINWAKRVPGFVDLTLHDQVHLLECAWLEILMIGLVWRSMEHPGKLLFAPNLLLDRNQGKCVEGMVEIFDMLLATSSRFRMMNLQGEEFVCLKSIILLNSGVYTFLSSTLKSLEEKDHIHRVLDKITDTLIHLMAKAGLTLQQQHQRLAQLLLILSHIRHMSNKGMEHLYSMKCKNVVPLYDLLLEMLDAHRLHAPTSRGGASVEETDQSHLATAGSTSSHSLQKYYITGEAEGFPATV
The class given is functional.

The target of experiment [3] is Gamma-aminobutyric acid receptor subunit alpha-1/alpha-2/beta-2/gamma-2 (Homo sapiens, UniProt P14867+P18507+P47869+P47870). The class given is functional, cell-based.
Experiment [4] concerns the target T3, Peroxisome proliferator-activated receptor gamma (Homo sapiens, UniProt P37231).
T3 sequence (P37231 whole entry): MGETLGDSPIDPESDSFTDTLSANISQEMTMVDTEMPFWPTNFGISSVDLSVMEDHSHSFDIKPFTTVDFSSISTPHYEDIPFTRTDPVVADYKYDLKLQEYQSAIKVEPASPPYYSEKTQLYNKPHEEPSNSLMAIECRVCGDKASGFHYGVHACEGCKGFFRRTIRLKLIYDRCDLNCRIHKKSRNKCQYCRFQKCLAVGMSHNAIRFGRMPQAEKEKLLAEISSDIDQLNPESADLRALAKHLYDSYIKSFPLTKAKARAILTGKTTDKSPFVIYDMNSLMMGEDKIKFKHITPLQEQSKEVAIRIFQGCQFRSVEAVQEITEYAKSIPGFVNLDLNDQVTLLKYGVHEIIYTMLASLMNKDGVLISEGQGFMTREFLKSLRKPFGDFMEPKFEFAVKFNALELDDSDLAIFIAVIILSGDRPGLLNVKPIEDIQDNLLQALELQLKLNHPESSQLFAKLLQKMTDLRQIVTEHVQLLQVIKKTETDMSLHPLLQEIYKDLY
The class given is functional.

The target of experiment [5] is T4, Corticotropin-releasing factor receptor 1 (Homo sapiens, UniProt P34998).
T4 sequence (P34998 whole entry): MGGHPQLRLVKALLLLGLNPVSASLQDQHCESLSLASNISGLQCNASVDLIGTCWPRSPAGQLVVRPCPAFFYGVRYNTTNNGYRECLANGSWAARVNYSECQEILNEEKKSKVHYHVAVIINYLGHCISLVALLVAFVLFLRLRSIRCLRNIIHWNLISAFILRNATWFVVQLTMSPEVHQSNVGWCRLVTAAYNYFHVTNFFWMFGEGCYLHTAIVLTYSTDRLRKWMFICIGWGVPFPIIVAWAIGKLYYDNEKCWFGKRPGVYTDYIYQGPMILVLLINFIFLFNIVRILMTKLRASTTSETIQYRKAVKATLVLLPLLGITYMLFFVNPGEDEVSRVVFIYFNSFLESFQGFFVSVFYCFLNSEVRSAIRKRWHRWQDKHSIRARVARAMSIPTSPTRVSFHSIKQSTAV

The target of experiment [6] is T5, D(4) dopamine receptor (Homo sapiens, UniProt P21917).
T5 sequence (P21917 whole entry): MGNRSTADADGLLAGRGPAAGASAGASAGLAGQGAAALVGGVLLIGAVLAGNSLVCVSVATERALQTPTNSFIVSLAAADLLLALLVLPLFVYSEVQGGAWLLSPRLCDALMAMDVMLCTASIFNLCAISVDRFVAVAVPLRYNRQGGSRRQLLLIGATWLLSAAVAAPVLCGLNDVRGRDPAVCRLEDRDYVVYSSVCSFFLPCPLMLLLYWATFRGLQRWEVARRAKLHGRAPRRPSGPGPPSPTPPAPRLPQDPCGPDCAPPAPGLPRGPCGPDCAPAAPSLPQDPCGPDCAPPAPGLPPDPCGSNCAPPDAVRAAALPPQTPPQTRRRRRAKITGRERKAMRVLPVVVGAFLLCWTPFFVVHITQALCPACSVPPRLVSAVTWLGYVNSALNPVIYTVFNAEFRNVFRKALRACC

In experiment [7] the target is Estrogen receptor beta (Homo sapiens, UniProt Q92731).
The target in experiment [8] is Gamma-aminobutyric acid receptor subunit alpha-1 (Rattus norvegicus, UniProt P62813).
Experiment [9] concerns the target T6, Neuropeptide Y receptor type 2 (Homo sapiens, UniProt P49146).
T6 sequence (P49146 whole entry): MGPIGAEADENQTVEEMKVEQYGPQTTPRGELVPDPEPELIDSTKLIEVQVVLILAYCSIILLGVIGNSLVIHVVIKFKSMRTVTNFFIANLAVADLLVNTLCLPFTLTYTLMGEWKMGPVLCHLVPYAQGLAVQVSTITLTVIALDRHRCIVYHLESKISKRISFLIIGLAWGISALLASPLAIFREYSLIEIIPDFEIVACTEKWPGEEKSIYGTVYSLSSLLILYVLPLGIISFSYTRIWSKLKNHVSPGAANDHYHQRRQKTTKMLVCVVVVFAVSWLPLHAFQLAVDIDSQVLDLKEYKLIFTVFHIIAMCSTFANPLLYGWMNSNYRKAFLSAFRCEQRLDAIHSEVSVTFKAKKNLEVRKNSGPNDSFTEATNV

The target of experiment [10] is Substance-P receptor (Homo sapiens, UniProt P25103).
Experiment [11] has as its target T1, D(1A) dopamine receptor.
Experiment [12] addresses Mu-type opioid receptor (Homo sapiens, UniProt P35372). Description: biochemical. The class given is functional.

Sequence of Gamma-aminobutyric acid receptor subunit alpha-1 (P62813 whole entry): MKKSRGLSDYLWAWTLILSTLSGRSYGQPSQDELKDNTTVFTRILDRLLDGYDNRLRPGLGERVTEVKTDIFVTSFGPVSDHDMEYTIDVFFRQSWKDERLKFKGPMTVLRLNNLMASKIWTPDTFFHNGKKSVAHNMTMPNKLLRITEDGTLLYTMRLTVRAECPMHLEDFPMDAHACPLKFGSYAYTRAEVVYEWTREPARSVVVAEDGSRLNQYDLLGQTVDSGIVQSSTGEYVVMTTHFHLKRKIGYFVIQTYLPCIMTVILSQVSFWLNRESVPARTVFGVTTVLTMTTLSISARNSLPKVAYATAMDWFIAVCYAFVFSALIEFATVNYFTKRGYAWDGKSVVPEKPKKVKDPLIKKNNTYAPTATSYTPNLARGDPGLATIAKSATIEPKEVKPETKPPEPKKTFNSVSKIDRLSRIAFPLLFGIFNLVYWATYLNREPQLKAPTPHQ
Sequence of Estrogen receptor beta (Q92731 whole entry): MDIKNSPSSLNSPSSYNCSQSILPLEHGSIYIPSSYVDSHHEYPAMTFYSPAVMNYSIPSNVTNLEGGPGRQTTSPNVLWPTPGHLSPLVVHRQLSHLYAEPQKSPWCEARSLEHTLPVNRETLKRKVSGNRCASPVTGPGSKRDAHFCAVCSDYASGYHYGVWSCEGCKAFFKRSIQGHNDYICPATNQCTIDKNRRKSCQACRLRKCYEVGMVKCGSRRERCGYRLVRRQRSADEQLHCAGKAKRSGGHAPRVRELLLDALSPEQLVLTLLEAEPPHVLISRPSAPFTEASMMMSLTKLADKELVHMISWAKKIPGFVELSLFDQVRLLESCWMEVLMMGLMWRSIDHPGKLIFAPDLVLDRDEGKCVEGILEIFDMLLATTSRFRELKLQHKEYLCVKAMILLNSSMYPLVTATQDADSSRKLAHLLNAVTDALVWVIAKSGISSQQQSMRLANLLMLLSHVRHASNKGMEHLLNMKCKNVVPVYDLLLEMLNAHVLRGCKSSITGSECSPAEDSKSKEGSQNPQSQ
Sequence of Gamma-aminobutyric acid receptor subunit alpha-1/alpha-2/beta-2/gamma-2 (P14867 whole entry): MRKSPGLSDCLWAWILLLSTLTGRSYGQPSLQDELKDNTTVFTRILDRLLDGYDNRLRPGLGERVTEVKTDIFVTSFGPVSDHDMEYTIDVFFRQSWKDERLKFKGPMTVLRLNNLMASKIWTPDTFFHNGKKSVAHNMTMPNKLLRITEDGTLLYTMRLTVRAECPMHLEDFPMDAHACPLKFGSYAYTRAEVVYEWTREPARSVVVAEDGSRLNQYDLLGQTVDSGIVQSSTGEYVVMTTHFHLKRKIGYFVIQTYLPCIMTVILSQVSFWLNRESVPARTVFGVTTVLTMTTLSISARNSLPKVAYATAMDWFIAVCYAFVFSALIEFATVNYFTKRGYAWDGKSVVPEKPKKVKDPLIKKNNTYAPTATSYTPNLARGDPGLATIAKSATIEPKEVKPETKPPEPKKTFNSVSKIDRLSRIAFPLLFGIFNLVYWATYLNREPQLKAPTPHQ
Sequence of Gamma-aminobutyric acid receptor subunit alpha-1/alpha-2/beta-2/gamma-2 (P47870 whole entry): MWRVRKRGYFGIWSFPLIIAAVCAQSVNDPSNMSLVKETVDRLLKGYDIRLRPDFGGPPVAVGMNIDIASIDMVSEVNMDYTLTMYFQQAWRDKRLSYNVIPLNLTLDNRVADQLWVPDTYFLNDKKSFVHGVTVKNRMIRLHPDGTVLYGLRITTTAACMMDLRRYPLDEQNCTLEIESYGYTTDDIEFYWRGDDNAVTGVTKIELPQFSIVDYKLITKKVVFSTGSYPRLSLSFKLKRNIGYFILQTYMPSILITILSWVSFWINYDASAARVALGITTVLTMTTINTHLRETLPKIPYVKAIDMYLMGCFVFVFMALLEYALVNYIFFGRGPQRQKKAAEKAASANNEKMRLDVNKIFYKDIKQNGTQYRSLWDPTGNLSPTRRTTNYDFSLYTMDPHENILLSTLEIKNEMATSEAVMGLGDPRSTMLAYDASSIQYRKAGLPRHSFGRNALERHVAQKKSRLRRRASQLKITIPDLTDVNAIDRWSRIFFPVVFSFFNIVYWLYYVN
Sequence of Gamma-aminobutyric acid receptor subunit alpha-1/alpha-2/beta-2/gamma-2 (P18507 whole entry): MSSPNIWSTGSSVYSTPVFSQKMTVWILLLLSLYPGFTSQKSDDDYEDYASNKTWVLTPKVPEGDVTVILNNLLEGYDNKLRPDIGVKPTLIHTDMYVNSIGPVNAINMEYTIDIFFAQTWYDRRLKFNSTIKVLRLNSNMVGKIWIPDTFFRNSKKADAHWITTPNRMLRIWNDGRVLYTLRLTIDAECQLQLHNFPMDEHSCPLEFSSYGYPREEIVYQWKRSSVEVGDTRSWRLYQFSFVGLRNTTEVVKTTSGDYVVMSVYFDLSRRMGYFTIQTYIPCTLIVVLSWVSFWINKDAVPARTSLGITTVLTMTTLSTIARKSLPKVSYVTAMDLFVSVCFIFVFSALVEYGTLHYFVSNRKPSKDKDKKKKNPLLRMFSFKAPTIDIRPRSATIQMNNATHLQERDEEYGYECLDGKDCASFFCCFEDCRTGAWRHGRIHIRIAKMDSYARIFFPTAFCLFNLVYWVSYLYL
Sequence of Gamma-aminobutyric acid receptor subunit alpha-1/alpha-2/beta-2/gamma-2 (P47869 whole entry): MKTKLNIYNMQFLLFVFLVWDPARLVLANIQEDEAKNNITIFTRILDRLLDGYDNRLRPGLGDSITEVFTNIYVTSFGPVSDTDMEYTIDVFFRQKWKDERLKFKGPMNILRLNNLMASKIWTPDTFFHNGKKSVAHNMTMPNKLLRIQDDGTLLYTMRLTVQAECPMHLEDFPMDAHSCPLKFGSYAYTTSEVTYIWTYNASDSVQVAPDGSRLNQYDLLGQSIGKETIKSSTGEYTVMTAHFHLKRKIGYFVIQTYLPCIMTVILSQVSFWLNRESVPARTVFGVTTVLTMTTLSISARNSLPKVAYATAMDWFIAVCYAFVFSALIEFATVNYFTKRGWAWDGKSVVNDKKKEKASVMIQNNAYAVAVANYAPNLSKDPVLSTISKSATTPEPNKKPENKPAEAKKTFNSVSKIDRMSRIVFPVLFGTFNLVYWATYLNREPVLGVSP
Sequence of Substance-P receptor (P25103 whole entry): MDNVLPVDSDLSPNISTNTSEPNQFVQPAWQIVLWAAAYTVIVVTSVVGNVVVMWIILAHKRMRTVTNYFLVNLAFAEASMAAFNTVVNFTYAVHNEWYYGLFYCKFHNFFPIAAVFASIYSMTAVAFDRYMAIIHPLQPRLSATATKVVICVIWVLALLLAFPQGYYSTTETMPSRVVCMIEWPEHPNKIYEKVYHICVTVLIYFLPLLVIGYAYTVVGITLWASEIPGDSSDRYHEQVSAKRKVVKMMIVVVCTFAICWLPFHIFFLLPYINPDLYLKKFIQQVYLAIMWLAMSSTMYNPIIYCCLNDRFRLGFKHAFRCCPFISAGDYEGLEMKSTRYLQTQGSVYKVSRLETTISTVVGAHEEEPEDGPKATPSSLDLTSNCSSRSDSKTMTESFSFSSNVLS
T1 sequence (P21728 whole entry): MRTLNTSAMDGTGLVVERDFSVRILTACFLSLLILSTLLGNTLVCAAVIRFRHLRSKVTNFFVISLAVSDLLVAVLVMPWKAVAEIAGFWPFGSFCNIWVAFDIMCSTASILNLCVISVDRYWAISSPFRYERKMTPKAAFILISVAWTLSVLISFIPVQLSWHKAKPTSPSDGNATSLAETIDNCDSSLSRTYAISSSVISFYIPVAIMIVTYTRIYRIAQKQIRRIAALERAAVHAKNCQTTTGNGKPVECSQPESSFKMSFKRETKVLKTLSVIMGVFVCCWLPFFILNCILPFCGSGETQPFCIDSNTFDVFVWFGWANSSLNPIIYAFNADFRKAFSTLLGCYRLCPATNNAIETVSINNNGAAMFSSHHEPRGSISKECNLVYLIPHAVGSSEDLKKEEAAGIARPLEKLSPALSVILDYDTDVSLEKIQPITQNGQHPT
Sequence of Mu-type opioid receptor (P35372 whole entry): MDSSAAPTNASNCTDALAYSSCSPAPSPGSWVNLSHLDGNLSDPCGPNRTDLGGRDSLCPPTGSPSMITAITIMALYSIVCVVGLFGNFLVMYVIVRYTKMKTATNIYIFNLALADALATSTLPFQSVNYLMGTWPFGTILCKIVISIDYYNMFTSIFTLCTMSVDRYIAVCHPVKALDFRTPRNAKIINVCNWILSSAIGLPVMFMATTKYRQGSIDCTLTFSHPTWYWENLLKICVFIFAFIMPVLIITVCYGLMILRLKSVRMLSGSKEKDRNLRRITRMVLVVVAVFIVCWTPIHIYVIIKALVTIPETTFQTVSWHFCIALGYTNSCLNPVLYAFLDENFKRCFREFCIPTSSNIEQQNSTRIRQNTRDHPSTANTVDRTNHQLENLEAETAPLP

For orientation: AC50 means the midpoint of the concentration-response curve, whichever way the signal moves. For `CN(C)CCC=C1c2ccccc2C(C)(C)c2ccccc21`, the half-maximal activity concentration (AC50) in experiment [1] was 4.5 µM; in [2], above 30 µM; in experiment [3], above 30 µM; in [4] it was above 30 µM.

Regarding `CNC(=O)c1ccccc1Sc1ccc2c(/C=C/c3ccccn3)n[nH]c2c1` [AXITINIB], the AC50 in experiment [1] and in experiment [3] was above 30 µM throughout.

Regarding `CC[C@H]1OC(=O)[C@H](C)[C@@H](O[C@H]2C[C@@](C)(OC)[C@@H](O)[C@H](C)O2)[C@H](C)[C@@H](O[C@@H]2O[C@H](C)C[C@H](N(C)C)[C@H]2O)[C@](C)(O)C[C@@H](C)CN(C)[C@H](C)[C@@H](O)[C@]1(C)O` [AZITHROMYCIN], the AC50 was above 30 µM in [5]; above 10 µM in [6]; above 30 µM in [7]; above 30 µM in experiment [8]; above 30 µM in experiment [9]; above 10 µM in experiment [10]. This compound gave an AC50 in [11] above 10 µM.

With `NCC(CC(=O)O)c1ccc(Cl)cc1` (stereo unspecified) [BACLOFEN], the AC50 is above 30 µM in experiment [5]; above 30 µM in experiment [1]; above 10 µM in [6]; above 30 µM in [7]; above 30 µM in experiment [3]; above 30 µM in experiment [9]. The results for the AC50 in experiment [4], in experiment [10] and in [11] were above 30 µM, above 10 µM and above 10 µM, respectively.

Turning to `CC(C)C[C@H]1C(=O)N2CCC[C@H]2[C@]2(O)O[C@](NC(=O)[C@@H]3C=C4c5cccc6[nH]c(Br)c(c56)C[C@H]4N(C)C3)(C(C)C)C(=O)N12` [BROMOCRIPTINE], the concentration at half-maximal activity (AC50) in [5], in experiment [1], in experiment [3], in experiment [8], in experiment [9] and in experiment [4] was above 30 µM in each case. This compound also displayed a half-maximal activity concentration (AC50) in experiment [11] above 10 µM.

Consider `O=C1Nc2ccc(Cl)cc2[C@@](C#CC2CC2)(C(F)(F)F)O1` [EFAVIRENZ], for which the AC50 in experiment [2] and in experiment [4] was above 30 µM in each case.

As for `O=C(OCC(O)CO)c1ccccc1Nc1ccnc2cc(Cl)ccc12` (stereo unspecified) [GLAFENINE], the AC50 is above 30 µM in experiment [1], above 30 µM in experiment [2], 17 µM in [3] and above 30 µM in [4].

As for `c1ccc([C@H]2CN3CCSC3=N2)cc1` [LEVAMISOLE], the AC50 in experiment [1], in experiment [2], in experiment [3], in [12], in experiment [4] and in experiment [11] was above 30 µM in each case.

With `C[C@H]1CNCCc2ccc(Cl)cc21` [LORCASERIN], the AC50 in experiment [1], in experiment [2], in experiment [3] and in experiment [4] was above 30 µM in each case.

In the case of `C[C@@H](O)[C@H]1C(=O)N2C(C(=O)O)=C(S[C@@H]3CN[C@H](C(=O)N(C)C)C3)[C@H](C)[C@H]12` [MEROPENEM], the AC50 in [1], in experiment [3] and in experiment [4] was above 300 µM each time.

Take `CNC1Cc2ccccc2N(C)c2ccccc21` (stereo unspecified) [METAPRAMINE]: the AC50 in [1], in experiment [2], in experiment [3] and in experiment [4] was above 30 µM each time.

Regarding `COc1ccc(CC(C)(C)NC[C@H](O)c2cc(O)cc3c2OCC(=O)N3)cc1` [OLODATEROL], the AC50 in experiment [1], in experiment [2], in [3] and in experiment [4] was above 30 µM each time.

Turning to `CCCN1C[C@H](CSC)C[C@@H]2c3cccc4[nH]cc(c34)C[C@H]21` [PERGOLIDE], the AC50 in [5], in experiment [2], in experiment [7], in [3], in experiment [9] and in experiment [4] was above 30 µM each time.

For `C1CCC(C(CC2CCCCN2)C2CCCCC2)CC1` (stereo unspecified) [PERHEXILINE], the AC50 in [1], in experiment [2] and in experiment [4] was above 30 µM each time.

Regarding `c1cnc(N2CCN(Cc3ccc4c(c3)OCO4)CC2)nc1` [PIRIBEDIL], the AC50 in [1], in experiment [2], in experiment [3] and in experiment [4] was above 30 µM throughout.

In the case of `Cc1c(C(=O)NN2CCCCC2)nn(-c2ccc(Cl)cc2Cl)c1-c1ccc(Cl)cc1` [RIMONABANT], the AC50 in [5] is above 30 µM; in experiment [1] it was 26 µM; in experiment [6], above 10 µM; in [2], above 10 µM; in [7], above 30 µM; in experiment [3], above 30 µM. Moreover, the results for the half-maximal activity concentration (AC50) in [9], in experiment [4] and in [10] were above 30 µM, above 30 µM and above 10 µM, respectively.

As for `CS(=O)(=O)c1ccc(C2=C(c3ccccc3)C(=O)OC2)cc1` [ROFECOXIB], the AC50 was above 30 µM in experiment [5]; above 10 µM in experiment [6]; above 30 µM in experiment [7]; above 30 µM in experiment [9]; above 30 µM in experiment [12]; above 10 µM in experiment [10]. In experiment [11], this compound came in with an AC50 above 10 µM.

For `Cc1cn([C@H]2C=C[C@@H](CO)O2)c(=O)[nH]c1=O` [STAVUDINE], the AC50 in experiment [5] is above 30 µM; in experiment [6], above 10 µM; in experiment [7], above 30 µM; in experiment [8], above 30 µM; in experiment [9], above 30 µM; in [10] it was above 10 µM. This compound registered an AC50 in experiment [11] above 10 µM.

For the compound `Cn1nnc2c(C(N)=O)ncn2c1=O` [TEMOZOLOMIDE], the AC50 in experiment [5] is above 30 µM; in [1], above 30 µM; in experiment [6] it was above 10 µM; in [2], above 30 µM; in [7], above 30 µM; in [3] it was above 30 µM. The AC50 is above 30 µM in experiment [9], above 30 µM in experiment [4], above 10 µM in [10] and above 10 µM in experiment [11].

Consider `N[C@@H]1[C@H]2CN(c3nc4c(cc3F)c(=O)c(C(=O)O)cn4-c3ccc(F)cc3F)C[C@@H]12` [TROVAFLOXACIN], for which the AC50 in [1], in [2], in experiment [3] and in experiment [4] was above 30 µM throughout.
